According to ChEMBL document CHEMBL4229400, “Covalent inhibitors of nicotinamide N-methyltransferase (NNMT) provide evidence for target engagement challenges in situ” (Bioorg Med Chem Lett, 2018):
pIC50: −log10 of the molar value. Active and inactive are the calls of the source. The rule behind the calls is not given here.

Key:
[1] = target: T1, Nicotinamide N-methyltransferase (Homo sapiens, UniProt P40261); experiment: Inhibition of NNMT in human 786-O cell lysate using d4-nicotinamide as substrate pretreated for 1 hr at 3 mins post 80 uM SAM addition followed by substrate addition measured after 15 to 30 mins by LC-MS analysis
T1 sequence (P40261 whole entry): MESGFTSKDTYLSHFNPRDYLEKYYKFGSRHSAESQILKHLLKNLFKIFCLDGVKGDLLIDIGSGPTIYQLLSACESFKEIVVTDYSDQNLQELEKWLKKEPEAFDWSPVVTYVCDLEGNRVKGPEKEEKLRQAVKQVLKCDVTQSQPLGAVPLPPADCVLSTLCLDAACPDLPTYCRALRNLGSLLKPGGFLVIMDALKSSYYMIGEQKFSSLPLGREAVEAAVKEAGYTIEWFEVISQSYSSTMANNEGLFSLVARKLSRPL

[2] = target: T2, Glutathione S-transferase omega-1 (Homo sapiens) (UniProt P78417); experiment: Binding affinity to GSTO1 cysteine residue in human 786-O cell soluble proteomic lysate at 5 uM incubated for 1 hr followed by cell lysis by IA-alkyne probe based isoTOP-ABPP analysis
T2 sequence (whole entry): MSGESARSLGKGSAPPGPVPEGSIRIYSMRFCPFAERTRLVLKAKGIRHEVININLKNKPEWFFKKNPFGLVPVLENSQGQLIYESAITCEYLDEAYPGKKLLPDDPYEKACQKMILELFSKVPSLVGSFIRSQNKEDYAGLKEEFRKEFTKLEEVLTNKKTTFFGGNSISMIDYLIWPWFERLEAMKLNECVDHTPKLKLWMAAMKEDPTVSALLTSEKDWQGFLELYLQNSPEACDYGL

[3] = target: T1, Nicotinamide N-methyltransferase; experiment: Inhibition of NNMT in human 786-O cell lysate using d4-nicotinamide as substrate pretreated for 1 hr at 3 mins post 20 uM SAM addition followed by substrate addition measured after 15 to 30 mins by LC-MS analysis
[4] = target: T3, Nicotinamide N-methyltransferase (Homo sapiens) (UniProt P40261); experiment: Binding affinity to NNMT C165 residue in human 786-O cell soluble proteomic lysate at 1 to 5 uM incubated for 1 hr followed by cell lysis by IA-alkyne probe based isoTOP-ABPP analysis
T3 sequence (whole entry): T1 sequence (P40261 whole entry)

[5] = target: T1, Nicotinamide N-methyltransferase; experiment: Inhibition of NNMT in human 786-O cell lysate using d4-nicotinamide as substrate pretreated for 1 hr at 3 mins post 10 uM SAM addition followed by substrate addition measured after 15 to 30 mins by LC-MS analysis
[6] = target: T4, Heme oxygenase 2 (Homo sapiens) (UniProt P30519); experiment: Binding affinity to HMOX2 cysteine residue in human 786-O cell lysate at 5 uM incubated for 1 hr followed by cell lysis by IA-alkyne probe based isoTOP-ABPP analysis
T4 sequence (whole entry): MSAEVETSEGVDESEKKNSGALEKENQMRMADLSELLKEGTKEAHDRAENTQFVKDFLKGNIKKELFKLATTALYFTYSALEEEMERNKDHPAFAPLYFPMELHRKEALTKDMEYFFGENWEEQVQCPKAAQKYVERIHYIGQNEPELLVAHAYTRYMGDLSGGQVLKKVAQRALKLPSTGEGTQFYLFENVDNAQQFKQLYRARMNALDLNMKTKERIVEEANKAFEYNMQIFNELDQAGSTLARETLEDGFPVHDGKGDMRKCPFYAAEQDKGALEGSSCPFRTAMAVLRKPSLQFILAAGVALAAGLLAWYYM

[7] = target: T3, Nicotinamide N-methyltransferase (Homo sapiens); experiment: Inhibition of SAH-rhodamine binding to NNMT in human 786-O cell soluble proteomic lysate assessed as ratio of observed rate constant to test compound concentration preincubated for 10 to 40 mins followed by SAH-rhodamine addition measured after 5 mins by Gel-based ABPP analysis
[8] = target: T1, Nicotinamide N-methyltransferase; experiment: Inhibition of NNMT in human 786-O cell lysate using d4-nicotinamide as substrate pretreated for 1 hr at 3 mins post 40 uM SAM addition followed by substrate addition measured after 15 to 30 mins by LC-MS analysis
[9] = target: T5, Mitochondrial-processing peptidase subunit alpha (Homo sapiens) (UniProt Q10713); experiment: Binding affinity to PMPCA cysteine residue in human 786-O cell soluble proteomic lysate at 5 uM incubated for 1 hr followed by cell lysis by IA-alkyne probe based isoTOP-ABPP analysis
T5 sequence (whole entry): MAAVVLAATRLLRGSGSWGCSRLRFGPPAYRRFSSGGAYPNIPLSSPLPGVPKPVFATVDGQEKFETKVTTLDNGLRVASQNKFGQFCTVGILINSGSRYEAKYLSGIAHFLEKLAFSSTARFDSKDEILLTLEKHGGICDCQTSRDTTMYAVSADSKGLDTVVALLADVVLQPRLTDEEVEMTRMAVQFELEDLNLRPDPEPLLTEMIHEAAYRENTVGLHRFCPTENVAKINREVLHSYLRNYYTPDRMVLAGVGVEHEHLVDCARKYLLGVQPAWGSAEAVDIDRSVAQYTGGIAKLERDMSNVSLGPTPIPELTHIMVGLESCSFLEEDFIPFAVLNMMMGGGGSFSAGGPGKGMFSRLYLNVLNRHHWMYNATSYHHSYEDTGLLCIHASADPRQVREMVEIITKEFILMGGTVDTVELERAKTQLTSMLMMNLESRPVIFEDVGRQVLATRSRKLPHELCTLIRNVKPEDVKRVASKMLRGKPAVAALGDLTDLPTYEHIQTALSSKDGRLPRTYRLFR

[10] = target: T3, Nicotinamide N-methyltransferase (Homo sapiens); experiment: Binding affinity to NNMT C165 residue in human 786-O cell soluble proteomic lysate at 5 uM incubated for 1 hr followed by cell lysis by IA-alkyne probe based isoTOP-ABPP analysis relative to control
Zyxin (Homo sapiens) = target: T6, Zyxin (Homo sapiens) (UniProt Q15942); experiment: Binding affinity to ZYX cysteine residue in human 786-O cell soluble proteomic lysate at 5 uM incubated for 1 hr followed by cell lysis by IA-alkyne probe based isoTOP-ABPP analysis
T6 sequence (whole entry): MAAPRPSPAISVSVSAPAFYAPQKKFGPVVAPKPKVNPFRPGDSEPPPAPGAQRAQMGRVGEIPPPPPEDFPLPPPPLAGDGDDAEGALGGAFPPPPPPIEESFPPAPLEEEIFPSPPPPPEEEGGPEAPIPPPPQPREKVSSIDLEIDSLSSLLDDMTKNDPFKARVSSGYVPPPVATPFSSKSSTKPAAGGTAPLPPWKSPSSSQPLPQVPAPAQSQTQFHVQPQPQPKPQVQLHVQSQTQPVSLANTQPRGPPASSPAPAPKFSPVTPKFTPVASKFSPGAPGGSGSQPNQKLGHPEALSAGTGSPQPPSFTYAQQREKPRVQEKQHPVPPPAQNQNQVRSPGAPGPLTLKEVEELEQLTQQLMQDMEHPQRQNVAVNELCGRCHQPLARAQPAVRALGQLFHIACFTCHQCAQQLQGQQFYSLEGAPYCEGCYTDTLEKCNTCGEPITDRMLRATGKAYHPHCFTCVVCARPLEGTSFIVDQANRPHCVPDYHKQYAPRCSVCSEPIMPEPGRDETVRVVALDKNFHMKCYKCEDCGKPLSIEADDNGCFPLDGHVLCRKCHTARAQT

pIC50 [1] | Activity [2] | pIC50 [3] | Activity [4] | pIC50 [5] | Activity [6] | Ratio [7] [M⁻¹ s⁻¹] | pIC50 [8] | Activity [9] | Activity [10] | Activity (Zyxin (Homo sapiens)) | Compound
4.41 | Active | 5.21 | Active | 5.40 | Active | 285 | 5.00 | – | – | – | CC(C)CCN(C(=O)CCl)c1cc(C(=O)NCc2cccc([N+](=O)[O-])c2)cc(C(F)(F)F)c1
– | – | – | – | – | – | – | – | Active | inactive | Active | O=C(Nc1cccnc1Cl)c1cc(N(CCCc2ccccc2)C(=O)CCl)cc(C(F)(F)F)c1
